Consider four compounds from ChEMBL document CHEMBL3813616, “Discovery of novel 7-azaindoles as PDK1 inhibitors” (Bioorg Med Chem Lett, 2016).

The nature of series [1]: Efflux ratio of permeability from basolateral to apical over apical to basolateral side in human Caco2 cells. The class given is ADME, cell-based. The settings on record: Caco-2. For orientation: Caco-2 cells form a polarised layer with tight junctions and transporters.
The species entered for another series is Homo sapiens. Description: Selectivity ratio of IC50 for PI3K alpha (unknown origin) to IC50 for human His6-tagged PDK1.
In the next series the test system is MAPK3 (ERK1). Kind of series: Inhibition of human MAPK3 (2 to 379 residues) assessed as enzyme activity at 1 uM using 33P ATP by radioactive filter binding assay. The arrangement: scale not given: the % may be the effect or the level left.
The target in series [2] is Mitogen-activated protein kinase kinase kinase 5 (Homo sapiens) (UniProt Q99683). Description: Inhibition of human ASK1 (670 to 950 residues) assessed as enzyme activity at 1 uM using 33P ATP by radioactive filter binding assay. The arrangement: scale not given: the % may be the effect or the level left.
In series [3] the target is Death-associated protein kinase 1 (Homo sapiens) (UniProt P53355). Description: Inhibition of human DAPK1 (1 to 363 residues) assessed as enzyme activity at 1 uM using 33P ATP by radioactive filter binding assay. Also noted: scale not given: the % may be the effect or the level left.
In series [4] the target is Tyrosine-protein kinase JAK2 (Homo sapiens) (UniProt O60674). Kind of series: Inhibition of JAK2 (unknown origin) assessed as enzyme activity at 1 uM using 33P ATP by radioactive filter binding assay. Also noted: scale not given: the % may be the effect or the level left.
Tyrosine-protein kinase JAK2 (Homo sapiens), sequence (O60674 whole entry, the tested form may be a part): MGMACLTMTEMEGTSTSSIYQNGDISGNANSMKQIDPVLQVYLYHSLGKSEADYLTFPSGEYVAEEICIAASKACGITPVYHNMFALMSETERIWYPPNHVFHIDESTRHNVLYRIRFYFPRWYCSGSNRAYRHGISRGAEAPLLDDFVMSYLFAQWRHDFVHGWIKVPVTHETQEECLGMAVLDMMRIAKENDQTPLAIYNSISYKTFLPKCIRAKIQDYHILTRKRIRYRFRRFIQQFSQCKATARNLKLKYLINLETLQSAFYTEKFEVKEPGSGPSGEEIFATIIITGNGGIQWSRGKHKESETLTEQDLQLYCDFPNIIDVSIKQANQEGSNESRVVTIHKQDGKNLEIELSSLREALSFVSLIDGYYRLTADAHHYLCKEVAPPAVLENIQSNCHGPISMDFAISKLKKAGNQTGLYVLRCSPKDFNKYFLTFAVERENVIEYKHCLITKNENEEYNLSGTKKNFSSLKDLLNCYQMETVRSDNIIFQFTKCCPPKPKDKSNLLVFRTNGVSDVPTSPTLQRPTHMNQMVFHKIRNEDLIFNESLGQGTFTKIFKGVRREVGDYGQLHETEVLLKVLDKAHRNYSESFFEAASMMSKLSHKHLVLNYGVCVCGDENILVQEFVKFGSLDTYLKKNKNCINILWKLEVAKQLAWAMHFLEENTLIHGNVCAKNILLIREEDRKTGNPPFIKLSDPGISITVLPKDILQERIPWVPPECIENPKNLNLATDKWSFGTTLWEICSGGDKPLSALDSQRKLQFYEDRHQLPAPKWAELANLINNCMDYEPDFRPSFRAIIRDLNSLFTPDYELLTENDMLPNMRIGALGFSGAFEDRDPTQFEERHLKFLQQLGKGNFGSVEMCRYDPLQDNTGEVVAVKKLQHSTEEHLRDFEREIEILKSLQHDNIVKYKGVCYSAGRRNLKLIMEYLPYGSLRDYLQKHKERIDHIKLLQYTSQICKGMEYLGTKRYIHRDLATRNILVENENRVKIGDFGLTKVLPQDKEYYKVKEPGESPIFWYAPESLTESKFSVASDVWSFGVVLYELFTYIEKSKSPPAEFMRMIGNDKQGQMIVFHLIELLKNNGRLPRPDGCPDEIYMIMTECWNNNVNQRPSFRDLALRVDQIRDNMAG
In series [5] the target is Ephrin type-B receptor 1 (Homo sapiens) (UniProt P54762). Kind of series: Inhibition of human EPHB1 (565 to 984 residues) assessed as enzyme activity at 1 uM using 33P ATP by radioactive filter binding assay. Also noted: scale not given: the % may be the effect or the level left.
For series [6], the target named is Receptor-interacting serine/threonine-protein kinase 2 (Homo sapiens) (UniProt O43353). Kind of series: Inhibition of human RIPK2 (2 to 311 residues) assessed as enzyme activity at 1 uM using 33P ATP by radioactive filter binding assay. Also noted: scale not given: the % may be the effect or the level left.
Series [7] has as its target Mitogen-activated protein kinase kinase kinase 9 (Homo sapiens) (UniProt P80192). Kind of series: Inhibition of human MLK1 (132 to 413 residues) assessed as enzyme activity at 1 uM using 33P ATP by radioactive filter binding assay. Also noted: scale not given: the % may be the effect or the level left.
Series [8] addresses Calcium/calmodulin-dependent protein kinase kinase 1 (Homo sapiens) (UniProt Q8N5S9). Kind of series: Inhibition of CAMKK1 (unknown origin) assessed as enzyme activity at 1 uM using 33P ATP by radioactive filter binding assay. Also noted: scale not given: the % may be the effect or the level left.
The target in series [9] is MAP/microtubule affinity-regulating kinase 4 (Homo sapiens) (UniProt Q96L34). Description: Inhibition of human MARK4 (2 to 752 residues) assessed as enzyme activity at 1 uM using 33P ATP by radioactive filter binding assay. Also noted: scale not given: the % may be the effect or the level left.
Series [10] deals with Casein kinase II subunit alpha (Homo sapiens) (UniProt P68400). Kind of series: Inhibition of human CK2alpha (2 to 391 residues) assessed as enzyme activity at 1 uM using 33P ATP by radioactive filter binding assay. Also noted: scale not given: the % may be the effect or the level left.
Casein kinase II subunit alpha (Homo sapiens), sequence (P68400 whole entry, looked up, the tested form may be a part): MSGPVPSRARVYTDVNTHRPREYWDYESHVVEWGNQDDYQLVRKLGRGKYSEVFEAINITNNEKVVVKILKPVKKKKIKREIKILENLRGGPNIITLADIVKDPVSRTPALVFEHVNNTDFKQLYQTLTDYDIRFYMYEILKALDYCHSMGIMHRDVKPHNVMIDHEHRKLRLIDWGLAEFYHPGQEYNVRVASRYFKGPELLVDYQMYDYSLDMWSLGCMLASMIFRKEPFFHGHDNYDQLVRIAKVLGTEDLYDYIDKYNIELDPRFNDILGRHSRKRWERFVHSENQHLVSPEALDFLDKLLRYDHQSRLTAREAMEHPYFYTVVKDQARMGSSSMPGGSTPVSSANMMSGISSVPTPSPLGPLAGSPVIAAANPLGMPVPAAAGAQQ
For series [11], the target named is Mitogen-activated protein kinase 9 (Homo sapiens) (UniProt P45984). Kind of series: Inhibition of human JNK2 (1 to 424 residues) assessed as enzyme activity at 1 uM using 33P ATP by radioactive filter binding assay. Also noted: scale not given: the % may be the effect or the level left.
The target in series [12] is Tyrosine-protein kinase ZAP-70 (Homo sapiens) (UniProt P43403). Kind of series: Inhibition of human ZAP70 (1 to 619 residues) assessed as enzyme activity at 1 uM using 33P ATP by radioactive filter binding assay. Also noted: scale not given: the % may be the effect or the level left.
For series [13], the target named is Serine/threonine-protein kinase tousled-like 1 (Homo sapiens) (UniProt Q9UKI8). Description: Inhibition of human TLK1 (1 to 766 residues) assessed as enzyme activity at 1 uM using 33P ATP by radioactive filter binding assay. The arrangement: scale not given: the % may be the effect or the level left.
Serine/threonine-protein kinase tousled-like 1 (Homo sapiens), sequence (Q9UKI8 whole entry, the tested form may be a part): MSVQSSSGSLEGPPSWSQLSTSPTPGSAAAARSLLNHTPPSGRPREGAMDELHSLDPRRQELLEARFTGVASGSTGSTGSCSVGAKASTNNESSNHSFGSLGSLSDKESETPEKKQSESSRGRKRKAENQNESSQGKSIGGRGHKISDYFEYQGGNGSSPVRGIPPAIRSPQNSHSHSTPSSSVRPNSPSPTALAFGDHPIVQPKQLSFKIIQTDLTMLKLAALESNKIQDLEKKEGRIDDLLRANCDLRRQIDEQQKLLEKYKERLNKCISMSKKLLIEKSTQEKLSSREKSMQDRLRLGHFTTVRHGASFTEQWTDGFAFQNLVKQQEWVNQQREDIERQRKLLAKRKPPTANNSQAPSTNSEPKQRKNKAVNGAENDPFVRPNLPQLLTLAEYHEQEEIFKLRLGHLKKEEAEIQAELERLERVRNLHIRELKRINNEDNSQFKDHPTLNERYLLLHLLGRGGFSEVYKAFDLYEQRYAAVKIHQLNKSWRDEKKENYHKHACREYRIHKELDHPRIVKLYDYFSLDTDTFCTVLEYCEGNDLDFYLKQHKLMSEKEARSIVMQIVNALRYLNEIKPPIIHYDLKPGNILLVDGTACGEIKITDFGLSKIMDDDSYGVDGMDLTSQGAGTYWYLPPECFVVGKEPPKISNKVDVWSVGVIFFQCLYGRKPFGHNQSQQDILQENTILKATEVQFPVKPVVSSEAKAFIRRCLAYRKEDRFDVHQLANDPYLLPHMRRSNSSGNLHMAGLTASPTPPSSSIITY
For series [14], the target named is Interleukin-1 receptor-associated kinase 4 (Homo sapiens) (UniProt Q9NWZ3). Kind of series: Inhibition of human IRAK4 (14 to 460 residues) assessed as enzyme activity at 1 uM using 33P ATP by radioactive filter binding assay. Also noted: scale not given: the % may be the effect or the level left.
Series [15] has as its target Misshapen-like kinase 1 (Homo sapiens) (UniProt Q8N4C8). Kind of series: Inhibition of human MINK1 (1 to 320 residues) assessed as enzyme activity at 1 uM using 33P ATP by radioactive filter binding assay. Also noted: scale not given: the % may be the effect or the level left.
Series [16] has as its target Serine/threonine-protein kinase 33 (Homo sapiens) (UniProt Q9BYT3). Kind of series: Inhibition of human STK33 (1 to 514 residues) assessed as enzyme activity at 1 uM using 33P ATP by radioactive filter binding assay. Also noted: scale not given: the % may be the effect or the level left.
In series [17] the target is NUAK family SNF1-like kinase 1 (Homo sapiens) (UniProt O60285). Kind of series: Inhibition of human NUAK1 (2 to 660 residues) assessed as enzyme activity at 1 uM using 33P ATP by radioactive filter binding assay. The arrangement: scale not given: the % may be the effect or the level left.
Series [18] concerns the target Interleukin-1 receptor-associated kinase 1 (Homo sapiens) (UniProt P51617). Description: Inhibition of human IRAK1 (1 to 712 residues) assessed as enzyme activity at 1 uM using 33P ATP by radioactive filter binding assay. The arrangement: scale not given: the % may be the effect or the level left.
Series [19] deals with Serine/threonine-protein kinase TAO1 (Homo sapiens) (UniProt Q7L7X3). Description: Inhibition of human TAO1 (1 to 356 residues) assessed as enzyme activity at 1 uM using 33P ATP by radioactive filter binding assay. Also noted: scale not given: the % may be the effect or the level left.
Series [20] deals with Aurora kinase A (Homo sapiens) (UniProt O14965). Kind of series: Inhibition of human Aurora A (2 to 403 residues) assessed as enzyme activity at 1 uM using 33P ATP by radioactive filter binding assay. Also noted: scale not given: the % may be the effect or the level left.
Aurora kinase A (Homo sapiens), sequence (O14965 whole entry, the tested form may be a part): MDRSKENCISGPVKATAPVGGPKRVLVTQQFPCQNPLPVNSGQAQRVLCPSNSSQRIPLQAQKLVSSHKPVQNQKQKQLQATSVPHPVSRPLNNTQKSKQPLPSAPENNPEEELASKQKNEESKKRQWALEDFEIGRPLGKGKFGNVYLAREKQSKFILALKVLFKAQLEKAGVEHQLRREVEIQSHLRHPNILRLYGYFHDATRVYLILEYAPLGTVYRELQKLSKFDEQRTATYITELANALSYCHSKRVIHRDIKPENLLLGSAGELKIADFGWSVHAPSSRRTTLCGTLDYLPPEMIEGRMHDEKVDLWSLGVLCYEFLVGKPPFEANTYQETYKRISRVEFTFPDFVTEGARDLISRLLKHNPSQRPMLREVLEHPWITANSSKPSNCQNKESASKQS
Series [21] deals with Serine/threonine-protein kinase BRSK1 (Homo sapiens) (UniProt Q8TDC3). Description: Inhibition of human BRSK1 (2 to 778 residues) assessed as enzyme activity at 1 uM using 33P ATP by radioactive filter binding assay. Also noted: scale not given: the % may be the effect or the level left.
Series [22] addresses Serine/threonine-protein kinase MARK1 (Homo sapiens) (UniProt Q9P0L2). Description: Inhibition of human MARK1 (2 to 795 residues) assessed as enzyme activity at 1 uM using 33P ATP by radioactive filter binding assay. Also noted: scale not given: the % may be the effect or the level left.
In series [23] the target is Mitogen-activated protein kinase kinase kinase kinase 2 (Homo sapiens) (UniProt Q12851). Kind of series: Inhibition of human GCK (2 to 812 residues) assessed as enzyme activity at 1 uM using 33P ATP by radioactive filter binding assay. Also noted: scale not given: the % may be the effect or the level left.
In series [24] the target is Ephrin type-B receptor 2 (Homo sapiens) (UniProt P29323). Description: Inhibition of human EPHB2 (560 to 987 residues) assessed as enzyme activity at 1 uM using 33P ATP by radioactive filter binding assay. Also noted: scale not given: the % may be the effect or the level left.
The target of series [25] is High affinity nerve growth factor receptor (Homo sapiens) (UniProt P04629). Kind of series: Inhibition of human TrkA (441 to 760 residues) assessed as enzyme activity at 1 uM using 33P ATP by radioactive filter binding assay. The arrangement: scale not given: the % may be the effect or the level left.
The target of series [26] is Mitogen-activated protein kinase 1 (Homo sapiens) (UniProt P28482). Kind of series: Inhibition of human ERK2 (2 to 360 residues) assessed as enzyme activity at 1 uM using 33P ATP by radioactive filter binding assay. Also noted: scale not given: the % may be the effect or the level left.
Series [27] is described as follows: Solubility of the compound. The series is classed as physicochemical.
Series [28] deals with Phosphatidylinositol 4,5-bisphosphate 3-kinase catalytic subunit alpha isoform (Homo sapiens, UniProt P42336). Kind of series: Inhibition of PI3K alpha (unknown origin) at 10 uM.
Phosphatidylinositol 4,5-bisphosphate 3-kinase catalytic subunit alpha isoform, sequence (P42336 whole entry, canonical isoform): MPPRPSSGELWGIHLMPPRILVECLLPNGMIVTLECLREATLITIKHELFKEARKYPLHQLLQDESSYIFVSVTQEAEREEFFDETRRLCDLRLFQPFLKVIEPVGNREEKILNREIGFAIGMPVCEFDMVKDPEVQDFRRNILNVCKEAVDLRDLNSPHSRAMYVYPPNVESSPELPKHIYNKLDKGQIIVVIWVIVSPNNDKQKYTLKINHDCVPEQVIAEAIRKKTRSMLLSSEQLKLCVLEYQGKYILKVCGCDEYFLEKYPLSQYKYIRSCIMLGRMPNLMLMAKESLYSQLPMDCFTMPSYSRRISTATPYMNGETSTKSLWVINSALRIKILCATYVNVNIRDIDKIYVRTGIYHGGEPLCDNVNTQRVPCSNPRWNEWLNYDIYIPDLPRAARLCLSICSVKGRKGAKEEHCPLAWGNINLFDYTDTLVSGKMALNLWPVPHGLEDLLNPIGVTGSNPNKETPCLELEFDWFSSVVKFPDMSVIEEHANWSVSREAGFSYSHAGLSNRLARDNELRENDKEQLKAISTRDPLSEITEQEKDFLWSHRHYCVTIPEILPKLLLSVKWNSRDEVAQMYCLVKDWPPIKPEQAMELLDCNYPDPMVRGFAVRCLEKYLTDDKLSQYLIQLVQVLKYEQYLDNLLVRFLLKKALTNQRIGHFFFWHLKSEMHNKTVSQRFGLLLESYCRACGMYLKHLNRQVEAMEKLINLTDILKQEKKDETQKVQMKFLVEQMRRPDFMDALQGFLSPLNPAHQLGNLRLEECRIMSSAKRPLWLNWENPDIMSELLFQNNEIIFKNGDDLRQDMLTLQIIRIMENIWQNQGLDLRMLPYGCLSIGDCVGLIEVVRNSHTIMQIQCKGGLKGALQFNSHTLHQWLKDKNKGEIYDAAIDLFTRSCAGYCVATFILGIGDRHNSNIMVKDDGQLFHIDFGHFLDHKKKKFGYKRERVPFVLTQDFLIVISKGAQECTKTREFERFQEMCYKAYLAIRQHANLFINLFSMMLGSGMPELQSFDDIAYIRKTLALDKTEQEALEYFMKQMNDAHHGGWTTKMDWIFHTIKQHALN

Misshapen-like kinase 1 (Homo sapiens), sequence (Q8N4C8 whole entry, looked up, the tested form may be a part): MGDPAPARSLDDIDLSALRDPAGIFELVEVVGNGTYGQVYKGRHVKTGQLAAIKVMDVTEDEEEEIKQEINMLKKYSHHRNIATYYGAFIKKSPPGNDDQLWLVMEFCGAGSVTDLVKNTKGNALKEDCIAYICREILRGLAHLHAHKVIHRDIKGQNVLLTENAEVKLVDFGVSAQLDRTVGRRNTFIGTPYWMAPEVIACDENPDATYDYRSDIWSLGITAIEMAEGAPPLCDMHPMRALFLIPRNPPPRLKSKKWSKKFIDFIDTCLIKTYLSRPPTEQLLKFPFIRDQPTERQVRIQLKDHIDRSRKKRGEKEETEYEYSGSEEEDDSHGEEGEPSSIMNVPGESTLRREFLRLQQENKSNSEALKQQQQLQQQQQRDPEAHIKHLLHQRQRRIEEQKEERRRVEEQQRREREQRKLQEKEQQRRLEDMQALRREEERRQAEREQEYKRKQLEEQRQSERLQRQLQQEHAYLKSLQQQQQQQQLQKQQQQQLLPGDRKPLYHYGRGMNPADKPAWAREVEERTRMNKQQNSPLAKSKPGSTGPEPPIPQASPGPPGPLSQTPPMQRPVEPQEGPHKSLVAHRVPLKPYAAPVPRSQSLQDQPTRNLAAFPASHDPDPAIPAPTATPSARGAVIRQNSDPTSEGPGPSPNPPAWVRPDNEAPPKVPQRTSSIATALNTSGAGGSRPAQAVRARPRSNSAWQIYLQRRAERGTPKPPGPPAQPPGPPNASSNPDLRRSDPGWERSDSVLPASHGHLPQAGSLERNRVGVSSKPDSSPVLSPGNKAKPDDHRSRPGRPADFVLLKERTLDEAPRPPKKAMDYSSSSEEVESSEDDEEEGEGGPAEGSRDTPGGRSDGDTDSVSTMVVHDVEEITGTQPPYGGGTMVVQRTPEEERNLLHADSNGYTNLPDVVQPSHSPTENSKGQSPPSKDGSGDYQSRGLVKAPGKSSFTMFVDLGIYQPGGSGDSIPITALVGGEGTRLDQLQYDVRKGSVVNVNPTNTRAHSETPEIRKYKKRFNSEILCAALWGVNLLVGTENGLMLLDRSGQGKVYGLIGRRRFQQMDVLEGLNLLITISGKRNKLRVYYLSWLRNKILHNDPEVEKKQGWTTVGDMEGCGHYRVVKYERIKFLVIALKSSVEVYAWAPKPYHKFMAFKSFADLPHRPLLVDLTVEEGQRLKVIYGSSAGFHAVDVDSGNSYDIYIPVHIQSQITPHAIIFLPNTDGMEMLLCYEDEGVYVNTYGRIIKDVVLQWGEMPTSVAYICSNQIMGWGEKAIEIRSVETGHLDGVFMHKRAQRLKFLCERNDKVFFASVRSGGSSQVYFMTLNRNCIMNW

On to `CCCCc1cc(-c2c[nH]c3ncc(-c4cnn(C5CCNCC5)c4)cc23)nc(N)n1`, for which the Ratio in [1] is 37. Besides, the Ratio IC50 in the series filed under Homo sapiens stood at 65. Further, in the series with MAPK3 (ERK1), the Activity is -32%.
For the compound `Nc1nccc(-c2c[nH]c3ncccc23)n1` [MERIOLIN 1], the Activity in series [2] is -4%; in [3], -28%; in [4], -25%; in [5], -10%; in series [6], -13%; in [7], -20%. Moreover, the Activity was -33% in series [8]; 35% in [9]; -3% in [10]; -1% in [11]; -3% in series [12]; -14% in series [13]. Besides, the Activity in [14] was -36%; in [15] it was -78%; in series [16], -23%; in [17], -31%; in series [18], -49%; in [19], -15%. In addition, the Activity in series [20] is 1%; in series [21], -4%; in [22] it was -26%; in series [23], -83%; in series [24], 15%; in series [25], -30%. The Activity in series [26] is -14%.
The solubility is the dissolved amount per volume that the medium holds. On to `CCCCc1cc(-c2c[nH]c3ncccc23)nc(N)n1`, for which the solubility in series [27] is above 1000 µg/mL.
One may read the inhibition as the share of the control response that was lost under treatment. `CCc1cc(-c2c[nH]c3ncc(-c4cnn(C5CCNCC5)c4)cc23)nc(N)n1`: the inhibition in [28] worked out at 80%.
